The assay concerns the target T1, hALDH2 (recombinant human mitochondria ALDH) (Homo sapiens, UniProt P05091).
T1 sequence (P05091 18-517): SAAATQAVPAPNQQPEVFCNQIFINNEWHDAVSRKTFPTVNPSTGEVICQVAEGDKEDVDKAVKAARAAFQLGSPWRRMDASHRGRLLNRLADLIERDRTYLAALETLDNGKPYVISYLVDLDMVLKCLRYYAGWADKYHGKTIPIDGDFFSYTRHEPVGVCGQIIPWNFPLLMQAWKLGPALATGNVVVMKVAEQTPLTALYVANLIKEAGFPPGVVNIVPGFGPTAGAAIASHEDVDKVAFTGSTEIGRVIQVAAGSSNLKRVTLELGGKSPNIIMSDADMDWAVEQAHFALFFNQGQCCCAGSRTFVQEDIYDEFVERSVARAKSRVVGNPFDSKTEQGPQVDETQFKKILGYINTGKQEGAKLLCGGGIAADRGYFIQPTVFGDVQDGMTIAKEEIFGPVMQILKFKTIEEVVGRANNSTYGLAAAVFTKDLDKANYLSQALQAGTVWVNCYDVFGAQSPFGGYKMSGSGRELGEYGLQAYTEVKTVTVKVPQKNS
Description: ALDH2 inhibition assay (NADH formation, formaldehyde substrate). It counts as biochemical. The conditions noted are these: for inhibition at 1 µM: read-out: hALDH2 inhibition (IC50 hALDH2 column); for inhibition at 1 µM / hALDH2 inhibition (IC50 hALDH2 column): at 1 μM. The protocol:
ALDH2 inhibition assays were performed in sodium phosphate buffer (50 mM, pH 7.4) containing 1.2 mM NAD^+ (Sigma N7004), 1 nM hALDH2 (recombinant human mitochondria ALDH), various concentrations of test compounds (from 0.03 nM to 1000 nM), and 0.15 mM freshly prepared formaldehyde solution (Ladd Research 20295). Reactions were initiated by the addition of formaldehyde and rates were recorded by monitoring NADH formation in a temperature controlled (25° C.) FluoroMax-2 Fluorimeter with excitation and emission wavelengths set at 340 and 460 nm, respectively. […] Normally, IC50 values were determined by fitting concentration-inhibition data to sigmoidal dose-response curves with two-floating parameters: IC50 and Hill coefficient. When tight binding situation was suspected, apparent Ki values were estimated by fitting dose-response data to Morrison's equation [Methods in Enzymology 63, 437-467, 1979].

Structures are written as SMILES.

These results are taken from patent US20090124672A1 (priority 2007, published 2009).

For the molecule `N#Cc1cccc(-c2nc(COc3ccc4c(=O)c(-c5ccc(O)cc5)coc4c3)no2)c1` [PT-40, 3-(3-{[3-(4-hydroxyphenyl)-4-oxochromen-7-yloxy]methyl}-1,2,4-oxadiazol-5-yl)benzenecarbonitrile], the IC50 (commonly the concentration needed to halve the response being measured) was 0.022 µM.

In the case of `O=C(O)c1cccc(-c2nc(COc3ccc4c(=O)c(-c5ccc(O)cc5)coc4c3)no2)c1` [PT-41, 3-(3-{[3-(4-hydroxyphenyl)-4-oxochromen-7-yloxy]methyl}-1,2,4-oxadiazol-5-yl)benzoic acid], the IC50 is 0.01 µM.

`O=c1c(-c2ccc(O)cc2)coc2cc(OCc3noc(-c4cccc(F)c4)n3)ccc12` [PT-42, 7-{[5-(3-fluorophenyl)(1,2,4-oxadiazol-3-yl)]methoxy}-3-(4-hydroxyphenyl)chromen-4-one]: the IC50 stood at 0.062 µM.

With `O=c1c(-c2ccc(O)cc2)coc2cc(OCc3nc(-c4ccccc4)no3)ccc12` [PT-43, 3-(4-hydroxyphenyl)-7-[(3-phenyl(1,2,4-oxadiazol-5-yl))methoxy]chromen-4-one], the concentration for half-maximal inhibition (IC50) was found to be 0.47 µM.

As for `O=c1c(-c2ccc(O)cc2)coc2cc(OCc3nc(-c4ccc(Cl)cc4)no3)ccc12` [PT-44, 3-(4-hydroxyphenyl)-7-({3-[4-chlorophenyl](1,2,4-oxadiazol-5-yl)}methoxy)chromen-4-one], the IC50 was found to be 0.27 µM.

On to `O=c1c(-c2ccc(OCc3ccc(C(F)(F)F)nc3)cc2)coc2cc(OCc3cncc(C(F)(F)F)c3)ccc12` [PT-46, 7-{[5-(trifluoromethyl)(3-pyridyl)]methoxy}-3-(4-{[6-(trifluoromethyl)(3-pyridyl)]methoxy}phenyl)chromen-4-one], for which the inhibition (as a rule, the drop in the measured response relative to a control, in per cent) at 1 µM was 10%.

As for `CS(=O)(=O)Nc1ccc(-c2coc3cc(OCc4noc(-c5ccc(F)cc5)n4)ccc3c2=O)cc1` [PT-48, 7-{[5-(4-fluorophenyl)(1,2,4-oxadiazol-3-yl)]methoxy}-3-{4-[(methylsulfonyl)amino]-phenyl}chromen-4-one], the IC50 came to 0.14 µM.

As for `O=C(O)c1cnc(COc2ccc3c(=O)c(-c4ccc(O)cc4)coc3c2)o1` [PT-49, 2-{[3-(4-hydroxyphenyl)-4-oxochromen-7-yloxy]methyl}-1,3-oxazole-5-carboxylic acid], the IC50 was 0.016 µM.

On to `CO/N=C(\N)c1ccc(-c2coc3cc(OCc4cccc(C(=O)OC)c4)ccc3c2=O)cc1` [PT-50, methyl 3-({3-[4-((1Z)-1-amino-2-methoxy-2-azavinyl)phenyl]-4-oxochromen-7-yloxy}methyl)benzoate], for which the inhibition at 1 µM worked out at 47%.

For `O=c1c(-c2ccc(O)cc2)coc2cc(OCNCc3cccc(C(F)(F)F)c3)ccc12` [PT-54, 3-(4-hydroxyphenyl)-7-[({[3-(trifluoromethyl)phenyl]methyl}amino)methoxy]chromen-4-one], the concentration for half-maximal inhibition (IC50) amounted to 0.005 µM.

With `O=c1c(-c2ccc(O)cc2)coc2cc(OCc3cc(-c4cc(C(F)(F)F)cc(C(F)(F)F)c4)on3)ccc12` [PT-62, 7-({5-[3,5-bis(trifluoromethyl)phenyl]isoxazol-3-yl}methoxy)-3-(4-hydroxyphenyl)chromen-4-one], the half-maximal inhibitory concentration (IC50) is 0.072 µM.

Turning to `N#Cc1ccc(-c2coc3cc(OCc4cc(-c5cccc(C(F)(F)F)c5)no4)ccc3c2=O)cc1` [PT-69, 4-[4-oxo-7-({3-[3-(trifluoromethyl)phenyl]isoxazol-5-yl}methoxy)chromen-3-yl]benzenecarbonitrile], the 50% inhibitory concentration (IC50) was 0.18 µM.

With `NC(=O)c1ccc(-c2coc3cc(OCc4noc(-c5cc(F)cc(C(F)(F)F)c5)n4)ccc3c2=O)cc1` [PT-72, 4-[7-({5-[3-fluoro-5-(trifluoromethyl)phenyl](1,2,4-oxadiazol-3-yl)}methoxy)-4-oxochromen-3-yl]benzamide], the inhibition at 1 µM turned out to be 14%.

Regarding `O=c1c(-c2cn[nH]c2)coc2cc(OCc3noc(-c4cc(F)cc(C(F)(F)F)c4)n3)ccc12` [PT-75, 7-({5-[3-fluoro-5-(trifluoromethyl)phenyl](1,2,4-oxadiazol-3-yl)}methoxy)-3-(5-hydropyrazol-4-yl)chromen-4-one], the “hALDH2 inhibition (IC50 hALDH2 column)” value amounted to 14%.

As to `O=c1c(-c2ccc(O)cc2)coc2cc(OCc3cnc(-c4ccc(C(F)(F)F)cc4)s3)ccc12` [PT-77, 3-(4-hydroxyphenyl)-7-({2-[4-(trifluoromethyl)phenyl](1,3-thiazol-5-yl)}methoxy)chromen-4-one], the IC50 was 0.122 µM.

`O=C(COc1ccc2c(=O)c(-c3ccc(O)cc3)coc2c1)c1cccc(F)c1` [PT-78, 7-[2-(3-fluorophenyl)-2-oxoethoxy]-3-(4-hydroxyphenyl)chromen-4-one]: the IC50 was found to be 0.139 µM.

Regarding `O=c1c(-c2ccc(O)cc2)coc2cc(OCc3nnc(-c4ccccc4Cl)o3)ccc12` [PT-80, 7-{[5-(2-chlorophenyl)(1,3,4-oxadiazol-2-yl)]methoxy}-3-(4-hydroxyphenyl)chromen-4-one], the IC50 was 0.004 µM.

`CS(=O)(=O)Nc1ccc(-c2coc3cc(OCc4cnc(-c5ccc(C(F)(F)F)cc5)s4)ccc3c2=O)cc1` [PT-83, 3-{4-[(methylsulfonyl)amino]phenyl}-7-({2-[4-(trifluoromethyl)phenyl](1,3-thiazol-5-yl)}methoxy)chromen-4-one]: the IC50 was determined as 0.025 µM.

With `O=C(COc1ccc2c(=O)c(-c3ccc(O)cc3)coc2c1)c1ccccc1C(F)(F)F` [PT-85, 3-(4-hydroxyphenyl)-7-{2-oxo-2-[2-(trifluoromethyl)phenyl]ethoxy}chromen-4-one], the concentration for half-maximal inhibition (IC50) worked out at 0.07 µM.

With `O=c1c(-c2ccc3[nH]ncc3c2)coc2cc(OCc3noc(-c4cc(F)cc(C(F)(F)F)c4)n3)ccc12` [PT-86, 3-(1H-indazol-5-yl)-7-({5-[5-fluoro-3-(trifluoromethyl)phenyl](1,2,4-oxadiazol-3-yl)}methoxy)chromen-4-one], the inhibition at 1 µM was found to be 68%.

As for `O=c1c(-c2ccc(OCc3ccccn3)cc2)coc2cc(OCc3ccccn3)ccc12` [PT-93, 7-(2-pyridylmethoxy)-3-[4-(2-pyridylmethoxy)phenyl]chromen-4-one], the 50% inhibitory concentration (IC50) amounted to 0.017 µM.

Consider `O=c1c(-c2ccc(O)cc2)coc2cc(OCc3cncc(C(F)(F)F)c3)ccc12` [PT-94, 3-(4-hydroxyphenyl)-7-{[5-(trifluoromethyl)(3-pyridyl)]methoxy}chromen-4-one], for which the 50% inhibitory concentration (IC50) amounted to 0.02 µM.

On to `O=c1c(-c2ccc(O)cc2)coc2cc(OCc3cc(-c4ccc(Cl)cc4)on3)ccc12` [PT-95, 7-{[5-(4-chlorophenyl)isoxazol-3-yl]methoxy}-3-(4-hydroxyphenyl)chromen-4-one], for which the “hALDH2 inhibition (IC50 hALDH2 column)” value is reported as 57% and the inhibition at 1 µM amounted to 57%.

On to `O=c1c(-c2ccc(O)cc2)coc2cc(OCc3cc(-c4ccc(Cl)c(Cl)c4)on3)ccc12` [PT-96, 7-{[5-(3,4-dichlorophenyl)isoxazol-3-yl]methoxy}-3-(4-hydroxyphenyl)chromen-4-one], for which the inhibition at 1 µM turned out to be 47%.

As for `O=c1c(-c2ccc(O)cc2)coc2cc(OCCNCc3cccc(C(F)(F)F)c3)ccc12` [PT-99, 3-(4-hydroxyphenyl)-7-[2-({[3-(trifluoromethyl)phenyl]methyl}amino)ethoxy]chromen-4-one], the IC50 was 0.005 µM.

`O=C(O)c1coc(COc2ccc3c(=O)c(-c4ccc(O)cc4)coc3c2)n1` [PT-102, 2-{[3-(4-hydroxyphenyl)-4-oxochromen-7-yloxy]methyl}-1,3-oxazole-4-carboxylic acid]: the half-inhibitory concentration (IC50) amounted to 0.016 µM.

For the molecule `O=c1c(-c2ccc(O)cc2)coc2cc(OCc3nnc(-c4cccnc4)o3)ccc12` [PT-110, 3-(4-hydroxyphenyl)-7-[(5-(3-pyridyl)(1,3,4-oxadiazol-2-yl))methoxy]chromen-4-one], the IC50 came to 0.007 µM.

Turning to `O=c1c(-c2ccc(O)cc2)coc2cc(OCc3nc(-c4cccnc4)no3)ccc12` [PT-114, 3-(4-hydroxyphenyl)-7-[(3-(3-pyridyl)(1,2,4-oxadiazol-5-yl))methoxy]chromen-4-one], the IC50 is 0.032 µM.

As for `O=c1c(-c2ccc(O)cc2)coc2cc(OCc3nc(-c4cccc(C(F)(F)F)c4)no3)ccc12` [PT-115, 3-(4-hydroxyphenyl)-7-({3-[3-(trifluoromethyl)phenyl](1,2,4-oxadiazol-5-yl)}methoxy)chromen-4-one], the concentration for half-maximal inhibition (IC50) worked out at 0.038 µM.

For the molecule `CNC(=O)c1coc(COc2ccc3c(=O)c(-c4ccc(O)cc4)coc3c2)n1` [PT-118, (2-{[3-(4-hydroxyphenyl)-4-oxochromen-7-yloxy]methyl}(1,3-oxazol-4-yl))-N-methylcarboxamide], the concentration for half-maximal inhibition (IC50) is 0.023 µM.

As to `COc1ccc2c(COc3ccc4c(=O)c(-c5ccc(O)cc5)coc4c3)cc(=O)oc2c1` [PT-119, 4-{[3-(4-hydroxyphenyl)-4-oxochromen-7-yloxy]methyl}-7-methoxychromen-2-one], the IC50 stood at 0.068 µM.
